The values below come from the SangsterLogP compilation.

Molecules are shown by their SMILES. Square brackets hold non-standard residues; d marks the D form. Peptide text beside a SMILES is read from it. NMeF = CN[CH](Cc1ccccc1)C(=O)O

Broadly, the logP is the decadic logarithm of the partition coefficient of the neutral form, usually between octanol and water. Higher therefore signals a more lipophilic compound. Broadly, the logD is lipophilicity at a set pH, counting ionised and neutral species. A lower logD goes with lower lipophilicity.

Assay in data set [1]: not given
The source holds these as a separate data set.

Assay in data set [2]: not given
The source holds these as a separate data set.

The nature of data set [3]: method code SF-RC, from DOI: 10.1016/j.nucmedbio.2014.05.001, PMID: 24969632. The conditions noted are these: pH 7.4.
The nature of data set [4]: method code SF-AS, from DOI: 10.1016/0378-5173(85)90003-1.
Data set [5] in a line: method code SF-AS, from DOI: 10.1016/s0020-1693(00)85781-3.
Data set [6] in a line: method code SF-AS, from DOI: 10.3109/03639048709068705.
Data set [7] can be described thus: method code SF-HPLC, from DOI: 10.1016/0731-7085(91)80215-u, PMID: 1821151. To be noted: pH 7.4.
A short description of data set [8]: method code SF-HPLC, from DOI: 10.1016/j.bmc.2015.09.009, PMID: 26385444.
Data set [9] can be described thus: method code SF-HPLC, from DOI: 10.1002/jlac.1995199512306.
Assay in data set [10]: not given
This is another data set of the same source.

Data set [11] in a line: method code SF, from PMID: 26783178.
The nature of data set [12]: method code SF-RC, from DOI: 10.1023/a:1015867608405, PMID: 1614980. To be noted: pH 7.4.
Assay in data set [13]: not given
The source holds these as a separate data set.

A short description of data set [14]: method code SF-AS, from DOI: 10.1248/bpb1978.4.759, PMID: 7320829.
Assay in data set [15]: not given
The source holds these as a separate data set.

Assay in data set [16]: not given
This is another data set of the same source.

Data set [17] is described as follows: method code SF-RC, from DOI: 10.1016/j.nucmedbio.2007.12.005, PMID: 18355688. To be noted: pH 7.4.
The nature of data set [18]: from Ganellin, C.; Brown, T.; Griffiths, R.; Jones, M.; Mitchell, C.; Rana, K.; Saunders, D.; Smith, I.; Sore, E.; Wilks, J.; Young, R. (1991). Use of partition coefficients as a model for brain ….
The nature of data set [19]: method code SF-HPLC, from DOI: 10.2174/1871523013666141114203105, PMID: 25403255. To be noted: pH 7.4.
Data set [20] can be described thus: method code SF, from DOI: 10.1021/jm00294a005, PMID: 5000561.

With `Clc1ccc2c(c1)CCc1cccnc1C2=C1CCNCC1`, the logP was determined as 2.56.
With `C(=Cc1ccccn1)c1ccc(C=Cc2ccccn2)cc1`, the logP in [1] amounted to 3.75.
In turn, `CCCOc1ccc(C(=O)C2c3cccc(O)c3C(=O)c3c(O)cccc32)cc1` gave a logP in data set [2] of 3.44.
In data set [2], `COc1ccc(C(=O)C2c3cccc(O)c3C(=O)c3c(O)cccc32)cc1OC` displayed a logP of 3.45.
`O=C(N1CCC(C(c2ccc3c(c2)OCO3)c2ccc3c(c2)OCO3)CC1)n1cncn1` gave a pH-dependent lipophilicity (logD) in data set [3] of 3.32.
Compound `COc1cc(C=Cc2ccncc2)ccc1C=Cc1ccncc1` displayed a logP in data set [1] of 3.73.
Regarding `CC(=O)OCC1=C(C(=O)OCOC(=O)C(C)(C)C)N2C(=O)C(NC(=O)CSc3ccncc3)C2SC1` (stereo not given), the logD in data set [4] (pH 4.6) turned out to be 1.63.
In data set [5], `c1ccc2c(c1)COCCOCCOCc1ccccc1COCCOC2` returned a logP of 2.21.
Compound `CCCC(=O)OC(CNC(C)C)COc1cccc2ccccc12` (stereo not given) had a log partition coefficient (logP) in [6] of 5.56.
Turning to `CCC(=O)OCC(c1cncn1C)C(CC)C(=O)OCC1CCCCC1` (stereo not given), the logD in data set [7] turned out to be 4.4.
On to `CC1=C(C(=O)Nc2nc3ccccc3s2)C(c2ccc(F)cc2)NC(=S)N1` (stereo not given), for which, in [8], the logP was determined as 2.18.
In turn, `Cc1cn(C2CC(N=[N+]=[N-])C(COP(=O)(OCc3ccc(C#N)cc3)OCC3OC(n4cc(C)c(=O)[nH]c4=O)CC3N=[N+]=[N-])O2)c(=O)[nH]c1=O` (stereo not given) displayed a logP in data set [9] of 0.91.
Turning to `CCCCCCCCc1ccc(OCC(=O)Cn2ccc3cc(C(=O)O)ccc32)cc1`, in [10], the logP is 6.3.
`CC1=C(C(=O)Nc2nc3ccccc3s2)C(c2ccc(N(C)C)cc2)NC(=S)N1` (stereo not given) had a logP in [8] of 2.22.
Compound `Cc1ccc(N2C(=O)[C@H](CCCNS(=O)(=O)c3ccc(OC(F)(F)F)cc3)[C@H]2c2ccc([N+](=O)[O-])cc2)cc1` gave a logP in data set [11] of 4.55.
In the case of `CC(=O)NC(Cc1ccccc1)C(=O)NC(Cc1ccccc1)C(=O)N(C)C(Cc1ccccc1)C(N)=O` (stereo not drawn) (Ac-Phe-Phe-[NMeF]-NH2; configuration not given here), in [12], the logD came to 2.63.
With `Cc1nnc(SCC2=C(C(=O)OCOC(=O)C(C)(C)C)N3C(=O)C(NC(=O)Cn4cnnn4)C3SC2)s1` (stereo not given), the pH-dependent lipophilicity (logD) in data set [4] (pH 4.5) was 1.34.
`CN1CCC(=C2c3ccccc3CCc3cccnc32)CC1` returned a lipophilicity (logP) of 3.59.
Compound `CC1=C(C(=O)Nc2nc3ccccc3s2)C(c2ccc(C(F)(F)F)cc2)NC(=S)N1` (stereo not given) gave a lipophilicity (logP) in data set [8] of 2.92.
In [6], `CCCCCCCC(=O)OC(CNC(C)C)COc1cccc2ccccc12` (stereo not given) came in with a logP of 7.87.
For the compound `OC(CCCN1CCC(C(O)(c2ccccc2)c2ccccc2)CC1)c1ccccc1` (stereo not given), the logP stood at 3.9.
Compound `CCc1ccc(S(=O)(=O)NCCCC2C(=O)N(c3ccc(C)cc3)C2c2ccc(NS(C)(=O)=O)cc2)cc1` (stereo not given) came in with a logP in [11] of 3.62.
For `CCCCCCCCc1ccc(OCC(=O)Cn2cc(C(=O)C(C)C)c3cc(C(=O)O)ccc32)cc1`, in data set [10], the logP was determined as 6.6.
In the case of `CCC(C(=O)OCC1CCCCC1)C(COC(=O)c1ccccc1)c1cncn1C` (stereo not given), in data set [7], the logD was 5.47.
As to `COc1ccc(C(=O)C2c3cccc(O)c3C(=O)c3c(O)cccc32)cc1`, the log partition coefficient (logP) in [2] worked out at 3.74.
As to `CNC(=O)C(Cc1ccccc1)N(C)C(=O)C(Cc1ccccc1)N(C)C(=O)C(Cc1ccccc1)N(C)C(C)=O` (stereo not given) (Ac-[NMeF]-[NMeF]-[NMeF]-NHMe; configuration not given here), the pH-dependent lipophilicity (logD) in data set [12] came to 3.24.
As to `CC(C)(C)C(=O)OCOC(=O)C1=C(CSc2nncs2)CSC2C(NC(=O)Cn3cnnn3)C(=O)N12` (stereo not given), the logD in [4] (pH 4.6) is 1.45.
The compound `COc1cc(C=Cc2ccccn2)ccc1C=Cc1ccccn1` came in with a lipophilicity (logP) in data set [1] of 4.25.
As for `C=C1CC[C@H](O)C/C1=C/C=C1\CCC[C@]2(C)[C@@H]([C@H](C)CCCC(C)C)CC[C@@H]12`, the log partition coefficient (logP) in data set [13] is 10.2.
As for `Nc1ccc(S(=O)(=O)N2C(=O)NC(=O)C2(c2ccccc2)c2ccccc2)cc1`, the logP in data set [14] stood at 3.27.
In the case of `CCC(C(=O)OCC1CCCCC1)C(COC(C)=O)c1cncn1C` (stereo not given), the logD in [7] was determined as 3.86.
As to `CCc1ccc2c(c1)COCCOCCOCCOCCOCCOC2`, in data set [5], the log partition coefficient (logP) is 0.98.
`CCCCCCCCCCCCCCCc1cc(O)cc(O)c1`: the log partition coefficient (logP) in data set [15] is 7.4.
Take `O=C(OC(C(F)(F)F)C(F)(F)F)N1CCN(Cc2cccc(Oc3ccccc3)c2)CC1`: the logD in data set [3] is 5.
Compound `CCCCCCCCCCCCCCCCCc1cc(O)cc(O)c1` yielded a lipophilicity (logP) in [15] of 9.2.
In data set [16], `O=C1C(CCS(=O)c2ccccc2)C(=O)N(c2ccccc2)N1c1ccccc1` (stereo not given) returned a logP of 3.56.
In data set [6], `CCCCC(=O)OC(CNC(C)C)COc1cccc2ccccc12` (stereo not given) yielded a logP of 6.3.
In [16], `CC1=C(CC(=O)O)c2cc(F)ccc2/C1=C/c1ccc(S(C)(=O)=O)cc1` registered a lipophilicity (logP) of 3.29.
For the compound `CC(C)CCC[C@@H](C)[C@H]1CC[C@H]2C3=CC=C4C[C@@H](O)CC[C@]4(C)[C@H]3CC[C@]12C`, the logP in data set [13] is 8.65.
On to `CCCCN(C)C(=O)Cc1c(-c2ccccc2)nc2c(Cl)cc(Cl)cn12`, for which the pH-dependent lipophilicity (logD) in [17] was 2.14.
In turn, `c1cc(CN2CCCCC2)cc(OCCCNc2nc3ccccc3s2)c1` came in with a logP in data set [18] of 5.41.
With `O=C1NC(=O)C(c2ccccc2)(c2ccccc2)N1S(=O)(=O)c1ccc([N+](=O)[O-])cc1`, the logP in [14] is 4.04.
Compound `O=C1NC(=O)C(c2ccccc2)(c2ccccc2)N1S(=O)(=O)c1ccc(O)cc1` returned a pH-dependent lipophilicity (logD) in [14] (pH 7.0) of 1.62.
In data set [3], `O=C(N1CCN(C(c2ccccc2)c2ccccc2)CC1)n1nnc2ccccc21` displayed a pH-dependent lipophilicity (logD) of 3.61.
Regarding `COc1ccccc1OC(=O)COC(=O)Cc1ccccc1Nc1c(Cl)cccc1Cl`, the logD in [19] came to 4.6.
In [5], `CC(C)(C)c1ccc2c(c1)COCCOCCOCCOCCOCCOC2` gave a log partition coefficient (logP) of 1.71.
The compound `COc1cc(C=O)ccc1OC(=O)COC(=O)Cc1ccccc1Nc1c(Cl)cccc1Cl` yielded a logD in data set [19] of 4.86.
The compound `CCCCCCCCc1ccc(OCC(=O)Cn2cc(C(=O)OC)c3cc(C(=O)O)ccc32)cc1` showed a logP in [10] of 6.2.
For `CCCCCCCCCCCCCCCCCCCc1cc(O)cc(O)c1`, the logP in data set [15] is 10.9.
Regarding `CC1=C(C/C=C(\C)CCC[C@H](C)CCC[C@H](C)CCCC(C)C)C(=O)c2ccccc2C1=O`, the logP in [13] stood at 11.7.
In turn, `Cc1cn(C2CC(N=[N+]=[N-])C(COP(=O)(OCc3cccc([N+](=O)[O-])c3)OCC3OC(n4cc(C)c(=O)[nH]c4=O)CC3N=[N+]=[N-])O2)c(=O)[nH]c1=O` (stereo not given) came in with a logP in data set [9] of 0.99.
Take `CCCCN(C)C(=O)Cc1c(-c2ccc(Cl)cc2)nc2c(Cl)cc(Cl)cn12`: the pH-dependent lipophilicity (logD) in data set [17] is 2.2.
In [9], `Cc1cn(C2CC(N=[N+]=[N-])C(COP(=O)(OCc3ccccc3)OCC3OC(n4cc(C)c(=O)[nH]c4=O)CC3N=[N+]=[N-])O2)c(=O)[nH]c1=O` (stereo not given) gave a logP of 1.34.
With `C=CCc1ccc(OC(=O)COC(=O)Cc2ccccc2Nc2c(Cl)cccc2Cl)c(OC)c1`, the log distribution coefficient (logD) in data set [19] is 5.13.
As for `O=C1C(CCS(=O)(=O)c2ccccc2)C(=O)N(c2ccccc2)N1c1ccccc1`, in [16], the logP amounted to 3.51.
For the compound `CN(C(=O)Cc1c(-c2ccc(Cl)cc2)nc2c(Cl)cc(Cl)cn12)c1ccccc1`, the pH-dependent lipophilicity (logD) in data set [17] was 2.2.
As to `CCC(=O)OC1C(C)OC(OC2C(C)OC(OC3C(CC=O)CC(C)C(O)/C=C/C=C/CC(C)OC(=O)CC(OC(C)=O)C3OC)C(O)C2N(C)C)CC1(C)O` (stereo not given), the logP in data set [20] is 1.38.
For the compound `COc1cccnc1CCCCNc1nc(=O)c(Cc2ccc(C)nc2)c[nH]1`, the logP in data set [18] worked out at 2.58.
As to `O=C1[C@H](CC[C@H](O)c2ccc(F)cc2)[C@@H](c2ccc(O)cc2)N1c1ccc(F)cc1`, the lipophilicity (logP) in [11] was determined as 3.64.
For `CN(C)Cc1ccc(CSCCNc2nc(=O)c(Cc3ccc4ccccc4c3)c[nH]2)o1`, the lipophilicity (logP) in [18] was 4.57.
